Results: ChEMBL document CHEMBL4196079, “Molecular interaction of novel benzothiazolyl triazolium analogues with calf thymus DNA and HSA-their biological investigation as potent antimicrobial agents” (Eur J Med Chem, 2018)
Values after ≈ are worked out from the molar mass of the structure shown.

Key:
Escherichia coli [1] = assay: Antibacterial activity against Escherichia coli DH52 after 24 hrs by NCCLS micro broth dilution method; format: functional; details: DH52, 24 h
Micrococcus luteus = assay: Antibacterial activity against Micrococcus luteus ATCC 4698 after 24 hrs by micro broth dilution method; format: functional; details: ATCC 4698, 24 h
Cyberlindnera jadinii = assay: Antifungal activity against Candida utilis after 24 hrs by NCCLS micro broth dilution method; format: functional; details: Williopsis jadinii
Bacillus = assay: Antibacterial activity against Bacillus proteus ATCC 13315 after 24 hrs by NCCLS micro broth dilution method; format: functional; details: ATCC 13315, 24 h
Saccharomyces cerevisiae [2] = assay: Antifungal activity against Saccharomyces cerevisiae after 24 hrs by NCCLS micro broth dilution method; format: functional
Pseudomonas aeruginosa = assay: Antibacterial activity against Pseudomonas aeruginosa ATCC 27853 after 24 hrs by NCCLS micro broth dilution method; format: functional; details: ATCC 27853, 24 h
Aspergillus flavus = assay: Antifungal activity against Aspergillus flavus after 24 hrs by NCCLS micro broth dilution method; format: functional
Staphylococcus aureus [3] = assay: Antibacterial activity against methicillin-resistant Staphylococcus aureus N315 after 24 hrs by NCCLS micro broth dilution method; format: functional; details: N315, 24 h
Pichia norvegensis = assay: Antifungal activity against Candida mycoderma after 24 hrs by NCCLS micro broth dilution method; format: functional
Salmonella typhi = assay: Antibacterial activity against Salmonella typhi after 24 hrs by NCCLS micro broth dilution method; format: functional, Salmonella enterica subsp. enterica serovar Typhi; details: Salmonella enterica
Bacillus subtilis = assay: Antibacterial activity against Bacillus subtilis ATCC 21216 after 24 hrs by NCCLS micro broth dilution method; format: functional; details: ATCC 21216, 24 h
Candida albicans = assay: Antifungal activity against Candida albicans ATCC 76615 after 24 hrs by NCCLS micro broth dilution method; format: functional; details: ATCC 76615, 24 h
Shigella dysenteriae = assay: Antibacterial activity against Shigella dysenteriae after 24 hrs by NCCLS micro broth dilution method; format: functional
Escherichia coli [4] = assay: Antibacterial activity against Escherichia coli JM109 after 24 hrs by NCCLS micro broth dilution method; format: functional; details: JM109, 24 h
Staphylococcus aureus [5] = assay: Antibacterial activity against Staphylococcus aureus ATCC 25923 after 24 hrs by NCCLS micro broth dilution method; format: functional; details: ATCC 25923, 24 h
Saccharomyces cerevisiae [6] = assay: Potency index, ratio of fluconazole MIC to compound MIC for antifungal activity against Saccharomyces cerevisiae; format: functional

| Structure (SMILES) | MIC (Escherichia coli [1]) [mg/L] | MIC (Micrococcus luteus) [mg/L] | MIC (Cyberlindnera jadinii) [mg/L] | MIC (Bacillus) [mg/L] | MIC (Saccharomyces cerevisiae [2]) [mg/L] | MIC (Pseudomonas aeruginosa) [mg/L] | MIC (Aspergillus flavus) [mg/L] | MIC (Staphylococcus aureus [3]) [mg/L] | MIC (Pichia norvegensis) [mg/L] | MIC (Salmonella typhi) [mg/L] | MIC (Bacillus subtilis) [mg/L] | MIC (Candida albicans) [mg/L] | MIC (Shigella dysenteriae) [mg/L] | MIC (Escherichia coli [4]) [mg/L] | MIC (Staphylococcus aureus [5]) [mg/L] | Ratio (Saccharomyces cerevisiae [6]) |
| --- | --- | --- | --- | --- | --- | --- | --- | --- | --- | --- | --- | --- | --- | --- | --- | --- |
| CCCCCn1cc(COCc2c(-c3ccccc3)nc3sc4cc(OCC)ccc4n23)nn1 | 128 (≈ 269 µM) | 128 (≈ 269 µM) | 1 (≈ 2.1 µM) | 64 (≈ 135 µM) | 8 (≈ 16.8 µM) | 128 (≈ 269 µM) | 32 (≈ 67.3 µM) | 32 (≈ 67.3 µM) | 4 (≈ 8.41 µM) | 128 (≈ 269 µM) | 64 (≈ 135 µM) | 8 (≈ 16.8 µM) | 128 (≈ 269 µM) | 128 (≈ 269 µM) | 128 (≈ 269 µM) | 2 |
| CCCCCCn1cc(COCc2c(-c3ccccc3)nc3sc4ccccc4n23)nn1 | 32 (≈ 71.8 µM) | 2 (≈ 4.49 µM) | 4 (≈ 8.98 µM) | 8 (≈ 18 µM) | 8 (≈ 18 µM) | 16 (≈ 35.9 µM) | 32 (≈ 71.8 µM) | 16 (≈ 35.9 µM) | 32 (≈ 71.8 µM) | 16 (≈ 35.9 µM) | 16 (≈ 35.9 µM) | 8 (≈ 18 µM) | 2 (≈ 4.49 µM) | 32 (≈ 71.8 µM) | 8 (≈ 18 µM) | 2 |
| Clc1cccc(Cn2cc(COCc3c(-c4ccccc4)nc4sc5ccccc5n34)nn2)c1 | 64 (≈ 132 µM) | 32 (≈ 65.8 µM) | 32 (≈ 65.8 µM) | 64 (≈ 132 µM) | 64 (≈ 132 µM) | 32 (≈ 65.8 µM) | 128 (≈ 263 µM) | 32 (≈ 65.8 µM) | 16 (≈ 32.9 µM) | 64 (≈ 132 µM) | 32 (≈ 65.8 µM) | 8 (≈ 16.5 µM) | 32 (≈ 65.8 µM) | 64 (≈ 132 µM) | 64 (≈ 132 µM) | – |
| CCCCCCn1cc(COCc2c(-c3ccccc3)nc3sc4cc(OCC)ccc4n23)nn1 | 128 (≈ 261 µM) | 128 (≈ 261 µM) | 16 (≈ 32.7 µM) | 128 (≈ 261 µM) | 32 (≈ 65.4 µM) | 128 (≈ 261 µM) | 128 (≈ 261 µM) | 64 (≈ 131 µM) | 16 (≈ 32.7 µM) | 128 (≈ 261 µM) | 128 (≈ 261 µM) | 64 (≈ 131 µM) | 128 (≈ 261 µM) | 64 (≈ 131 µM) | 128 (≈ 261 µM) | – |
| CCOc1ccc2c(c1)sc1nc(-c3ccccc3)c(COCc3cn(Cc4ccccc4F)nn3)n12 | 128 (≈ 249 µM) | 128 (≈ 249 µM) | 16 (≈ 31.2 µM) | 64 (≈ 125 µM) | 64 (≈ 125 µM) | 128 (≈ 249 µM) | 128 (≈ 249 µM) | 128 (≈ 249 µM) | 32 (≈ 62.3 µM) | 128 (≈ 249 µM) | 256 (≈ 498 µM) | 32 (≈ 62.3 µM) | 64 (≈ 125 µM) | 128 (≈ 249 µM) | 128 (≈ 249 µM) | – |
| Fc1ccccc1Cn1cc(COCc2c(-c3ccccc3)nc3sc4ccccc4n23)nn1 | 128 (≈ 273 µM) | 64 (≈ 136 µM) | 16 (≈ 34.1 µM) | 128 (≈ 273 µM) | 64 (≈ 136 µM) | 128 (≈ 273 µM) | 128 (≈ 273 µM) | 32 (≈ 68.2 µM) | 16 (≈ 34.1 µM) | 64 (≈ 136 µM) | 128 (≈ 273 µM) | 32 (≈ 68.2 µM) | 128 (≈ 273 µM) | 128 (≈ 273 µM) | 64 (≈ 136 µM) | – |
| Fc1cccc(Cn2cc(COCc3c(-c4ccccc4)nc4sc5ccccc5n34)nn2)c1 | 32 (≈ 68.2 µM) | 128 (≈ 273 µM) | 8 (≈ 17 µM) | 64 (≈ 136 µM) | 32 (≈ 68.2 µM) | 128 (≈ 273 µM) | 128 (≈ 273 µM) | 16 (≈ 34.1 µM) | 8 (≈ 17 µM) | 128 (≈ 273 µM) | 64 (≈ 136 µM) | 16 (≈ 34.1 µM) | 128 (≈ 273 µM) | 16 (≈ 34.1 µM) | 128 (≈ 273 µM) | – |
